Source: article PMC3606911 (Journal of enzyme inhibition and medicinal chemistry, 2012)
Entries after “also recorded” stand apart in the source; their conditions may differ. Where two headings read alike, the source gives them in different places.

Legend:
FAAH [1] = target: T1, FAAH (Rattus norvegicus, UniProt P97612); assay: FAAH assay: hydrolysis of [3H]AEA by rat brain homogenates; format: biochemical
T1 sequence (P97612 1-579): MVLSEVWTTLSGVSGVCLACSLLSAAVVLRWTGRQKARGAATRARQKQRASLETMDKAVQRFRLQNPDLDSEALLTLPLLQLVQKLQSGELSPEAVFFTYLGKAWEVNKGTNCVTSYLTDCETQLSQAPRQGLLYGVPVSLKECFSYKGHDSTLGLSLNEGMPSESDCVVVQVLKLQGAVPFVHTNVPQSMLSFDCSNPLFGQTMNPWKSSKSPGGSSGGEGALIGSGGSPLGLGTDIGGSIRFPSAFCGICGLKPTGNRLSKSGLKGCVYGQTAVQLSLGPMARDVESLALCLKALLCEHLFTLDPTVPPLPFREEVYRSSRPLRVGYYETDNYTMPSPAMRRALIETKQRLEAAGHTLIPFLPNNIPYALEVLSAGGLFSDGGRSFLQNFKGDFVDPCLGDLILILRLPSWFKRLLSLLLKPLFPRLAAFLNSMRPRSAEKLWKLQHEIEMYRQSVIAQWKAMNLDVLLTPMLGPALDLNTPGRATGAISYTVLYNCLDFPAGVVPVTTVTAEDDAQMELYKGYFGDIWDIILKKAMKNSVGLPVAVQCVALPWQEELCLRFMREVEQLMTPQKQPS

[2] = test system: acetic acid-induced abdominal stretching; settings: rats, 20 mg/kg i.p., cited from earlier work
[3] = cited from earlier work
FAAH [4] = settings: cited from earlier work
ovine COX-1 = target: T2, ovine COX-1 (Ovis aries, UniProt P05979); assay: COX oxygen electrode assay, COX-1; format: biochemical; settings: for Initial activity (% of vehicle control) COX-1 (AEA): substrate 10 μM
T2 sequence (P05979 25-600): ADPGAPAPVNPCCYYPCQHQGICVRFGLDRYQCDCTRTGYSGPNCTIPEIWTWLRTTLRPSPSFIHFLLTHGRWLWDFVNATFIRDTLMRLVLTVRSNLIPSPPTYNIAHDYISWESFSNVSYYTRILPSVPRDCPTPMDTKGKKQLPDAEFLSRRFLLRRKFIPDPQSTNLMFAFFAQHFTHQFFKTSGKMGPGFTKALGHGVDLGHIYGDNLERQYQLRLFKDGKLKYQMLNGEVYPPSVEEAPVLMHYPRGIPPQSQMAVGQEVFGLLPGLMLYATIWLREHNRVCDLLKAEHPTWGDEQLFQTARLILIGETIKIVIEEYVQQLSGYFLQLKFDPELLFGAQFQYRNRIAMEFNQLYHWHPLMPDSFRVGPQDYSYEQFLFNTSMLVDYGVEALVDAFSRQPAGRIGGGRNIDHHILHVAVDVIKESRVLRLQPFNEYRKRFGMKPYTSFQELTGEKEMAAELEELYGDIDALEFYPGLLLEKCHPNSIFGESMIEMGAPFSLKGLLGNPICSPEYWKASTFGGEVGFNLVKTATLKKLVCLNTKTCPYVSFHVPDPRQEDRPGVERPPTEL

[5] = test system: acetic acid-induced abdominal stretching; settings: mice, 10 and 30 mg/kg s.c.; cited from earlier work
human recombinant COX-2 = target: T3, human recombinant COX-2 (Homo sapiens, UniProt P35354); assay: COX oxygen electrode assay, COX-2; format: biochemical; settings: for Initial activity (% of vehicle control) COX-2 (AEA) / Initial activity (% of vehicle control) COX-2 (AA): vehicle EtOH; for Initial activity (% of vehicle control) COX-2 (AEA): substrate AEA 10 μM; for Initial activity (% of vehicle control) COX-2 (AA): substrate AA 10 μM
T3 sequence (P35354 18-604): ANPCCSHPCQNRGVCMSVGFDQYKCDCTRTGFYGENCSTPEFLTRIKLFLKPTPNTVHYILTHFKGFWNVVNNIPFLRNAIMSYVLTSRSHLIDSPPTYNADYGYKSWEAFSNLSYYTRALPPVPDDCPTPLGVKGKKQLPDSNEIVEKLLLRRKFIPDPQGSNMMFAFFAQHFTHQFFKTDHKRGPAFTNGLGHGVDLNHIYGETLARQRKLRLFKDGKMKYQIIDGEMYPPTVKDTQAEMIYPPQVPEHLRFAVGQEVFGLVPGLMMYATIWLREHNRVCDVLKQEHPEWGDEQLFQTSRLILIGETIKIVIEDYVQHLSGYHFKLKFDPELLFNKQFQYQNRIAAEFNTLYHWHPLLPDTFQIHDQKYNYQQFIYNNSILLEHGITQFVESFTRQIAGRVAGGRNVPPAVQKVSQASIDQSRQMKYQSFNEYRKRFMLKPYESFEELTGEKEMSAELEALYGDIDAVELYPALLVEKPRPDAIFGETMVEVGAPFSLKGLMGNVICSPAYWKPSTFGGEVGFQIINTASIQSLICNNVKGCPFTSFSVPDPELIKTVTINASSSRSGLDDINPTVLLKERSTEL

[6] = test system: acetic acid-induced abdominal stretching (visceral nociception); assay: Acetic acid-induced abdominal stretching test; format: in vivo; settings: mice, 30 mg/kg s.c., 30 min before acetic acid
COX isoform = settings: cited from earlier work
[7] = read-out: inhibition of the cyclooxygenation of AA by COX-2

Cc1cccnc1NC(=O)CCNC(=O)C(C)c1ccc(CC(C)C)cc1 (centres unmarked) [Compound 11, 2-(4-Isobutylphenyl)-N-(3-(3-methylpyridin-2-ylamino)-3-oxopropyl)propanamide]
Max inhibition % (FAAH [1]; solvent DMSO): 90±3%

CC(C)Cc1ccc(C(C)C(=O)NCC(=O)NCc2ccccn2)cc1 (centres unmarked) [Compound 12, 2-(4-Isobutylphenyl)-N-(2-oxo-2-(pyridin-2-ylmethylamino)ethyl)propanamide]
Max inhibition % (FAAH [1]; solvent DMSO): 100%

CC(C)Cc1ccc(C(C)C(=O)O)cc1 (centres unmarked) [Compound 1, Ibuprofen, reference compound]
activity in the acetic acid-induced abdominal stretching test [2]: significantly less effective than 20 mg/kg of 2

Cc1cccnc1NC(=O)C(C)c1ccc(CC(C)C)cc1 (centres unmarked) [Compound 2, N-(3-methylpyridin-2-yl)-2-(4′-isobutylphenyl)propionamide]
acute ulcerogenesis [3]: much lower than seen with 1 | mode of inhibition of FAAH (FAAH [4]): acts non-competitively | orders of magnitude more potent as an inhibitor of FAAH than ibuprofen (FAAH [4]): 2–3 orders of magnitude | COX isoform selectivity with AA as substrate (ovine COX-1; AA as substrate, COX-1 vs COX-2): COX-1 selective | IC50 (ovine COX-1; IC50 COX-1 (approximate), AA 10 μM as substrate, DMSO as vehicle): ~240 µM | IC50 (ovine COX-1; IC50 COX-1 (approximate), AA 10 μM as substrate, ethanol as vehicle): ~60 µM | Initial activity (% of vehicle control) COX-1 (AEA) (ovine COX-1; vehicle DMSO, compound 20 μM): 106±15 (3) % of vehicle control | Initial activity (% of vehicle control) COX-1 (AEA) (ovine COX-1; vehicle DMSO, compound 50 μM): 82±4 (6) % of vehicle control | Initial activity (% of vehicle control) COX-1 (AEA) (ovine COX-1; vehicle DMSO, compound 100 μM): 63±6 (6) % of vehicle control | Initial activity (% of vehicle control) COX-1 (AEA) (ovine COX-1; vehicle DMSO, compound 200 μM): 59±8 (6) % of vehicle control | Initial activity (% of vehicle control) COX-1 (AEA) (ovine COX-1; vehicle DMSO, compound 400 μM): 36±0.9 (3) % of vehicle control | Initial activity (% of vehicle control) COX-1 (AEA) (ovine COX-1; vehicle EtOH, compound 20 μM): 70±6 (3) % of vehicle control | Initial activity (% of vehicle control) COX-1 (AEA) (ovine COX-1; vehicle EtOH, compound 50 μM): 57±0.6 (3) % of vehicle control | Initial activity (% of vehicle control) COX-1 (AEA) (ovine COX-1; vehicle EtOH, compound 100 μM): 45±8 (3) % of vehicle control | Initial activity (% of vehicle control) COX-1 (AEA) (ovine COX-1; vehicle EtOH, compound 200 μM): 14±4 (3) % of vehicle control | activity in the acetic acid-induced abdominal stretching test [5]: has analgesic activity; also recorded: greater than for a dose of 10 mg/kg s.c. and for 30 mg/kg of diclofenac | IC50 (human recombinant COX-2): ~19 µM | inhibition at 300 µM (human recombinant COX-2; [7]): 41% | Initial activity (% of vehicle control) COX-2 (AEA) (human recombinant COX-2; compound 3 μM): 111±15 (6) % of vehicle control | Initial activity (% of vehicle control) COX-2 (AEA) (human recombinant COX-2; compound 10 μM): 77±10 (3) % of vehicle control | Initial activity (% of vehicle control) COX-2 (AEA) (human recombinant COX-2; compound 20 μM): 51±17 (3) % of vehicle control | Initial activity (% of vehicle control) COX-2 (AEA) (human recombinant COX-2; compound 50 μM): 0.7±9 (4) % of vehicle control | Initial activity (% of vehicle control) COX-2 (AA) (human recombinant COX-2; compound 100 μM): 88±8 (3) % of vehicle control | Initial activity (% of vehicle control) COX-2 (AA) (human recombinant COX-2; compound 300 μM): 59±4 (4) % of vehicle control | fold more potent than 1 as an FAAH inhibitor (FAAH [1]): approximately 250 fold | FAAH/COX-1 potency ratio, ratio for 1 set to unity (FAAH [1]; higher number = increased FAAH inhibitory potency relative to COX-1 potency): ~ 500 | Max inhibition % (FAAH [1]; solvent DMSO): 100% | Max inhibition % (FAAH [1]; solvent EtOH): 100% | number of abdominal stretches elicited by acetic acid [6]: active in vivo; also recorded: decreased the number of abdominal stretches | activity in the acetic acid-induced abdominal stretching test ([2]; 20 mg/kg): has analgesic activity; also recorded: significantly greater reduction in stretching than the same dose of 1

Cc1cccnc1OC(=O)C(C)c1ccc(CC(C)C)cc1 (centres unmarked) [Compound 3, 3-methylpyridin-2-yl 2-(4-isobutylphenyl)propanoate]
Max inhibition % (FAAH [1]; solvent EtOH): 100%

Cc1cccnc1NC(=O)CNC(=O)C(C)c1ccc(CC(C)C)cc1 (centres unmarked) [Compound 9, 2-(4-Isobutylphenyl)-N-(2-(3-methylpyridin-2-ylamino)-2-oxoethyl)propanamide]
IC50 (ovine COX-1): ~50 µM | Initial activity (% of vehicle control) COX-1 (AEA) (ovine COX-1; vehicle EtOH, compound 20 μM): 76±8 (3) % of vehicle control | Initial activity (% of vehicle control) COX-1 (AEA) (ovine COX-1; vehicle EtOH, compound 50 μM): 56±4 (3) % of vehicle control | Initial activity (% of vehicle control) COX-1 (AEA) (ovine COX-1; vehicle EtOH, compound 100 μM): 23±4 (3) % of vehicle control | IC50 (human recombinant COX-2): ~10 µM | inhibition at 100 µM (human recombinant COX-2; [7]): 18% | Initial activity (% of vehicle control) COX-2 (AEA) (human recombinant COX-2; compound 3 μM): 83±8 (3) % of vehicle control | Initial activity (% of vehicle control) COX-2 (AEA) (human recombinant COX-2; compound 50 μM): −11±4 (3) % of vehicle control | Initial activity (% of vehicle control) COX-2 (AA) (human recombinant COX-2; compound 100 μM): 82±5 (4) % of vehicle control

CC(=O)Nc1ccc(OC(=O)C(C)c2ccc(Nc3ccnc(C(F)(F)F)c3)cc2)cc1 (centres unmarked) [4-acetamidophenyl 2-(4-(2-(trifluoromethyl)pyridin-4-ylamino)phenyl)propanoate, reference compound]
inhibition of COX isoforms (COX isoform): did not inhibit either COX isoform | IC50 (FAAH [4]; read-out: IC50 FAAH): 100 nM

CC(C)Cc1ccc(C(C)C(=O)NCC(=O)NCc2cccnc2)cc1 (centres unmarked) [Compound 13, 2-(4-Isobutylphenyl)-N-(2-oxo-2-(pyridin-3-ylmethylamino)ethyl)propanamide]
Max inhibition % (FAAH [1]; solvent DMSO): 81±8%

Cc1cccc(NC(=O)CNC(=O)C(C)c2ccc(CC(C)C)cc2)n1 (centres unmarked) [Compound 10, 2-(4-Isobutylphenyl)-N-(2-(6-methylpyridin-2-ylamino)-2-oxoethyl)propanamide]
Max inhibition % (FAAH [1]; solvent EtOH): 100%
